According to paper PMC4167557 (Nanomedicine (London, England), 2014):
Bridges are numbered along the chain shown (N, C = ends). Where no end group is shown, it is not given here.

Columns and labels:
[1] = Pharmacokinetics in mice after single intravenous injection; assay type: in vivo, BALB/c mice
[2] = test system: Caspase 3/7 in heart tissues; test: Caspase-Glo 3/7 assay in heart tissue; assay type: in vivo; conditions: 25 mg/kg, 5 days after treatment
K562-CLL1 xenograft = test: Efficacy in mice bearing K562-CLL1 xenograft; assay type: in vivo, nude mice; conditions: 10 mg/kg every 3 days
[3] = Pharmacokinetics in rats after single intravenous injection; assay type: in vivo, Sprague–Dawley rats
[4] = test system: vital organs (heart, liver, spleen, lung, kidney); test: Histological analysis of organ toxicity; assay type: in vivo; conditions: mice, 5 days after treatment
[5] = test system: plasma cardiac troponin T (cTnT); test: Plasma cardiac troponin T ELISA; assay type: in vivo; conditions: single dose DNR 15 mg/kg
[6] = test system: plasma creatine kinase MB isoenzyme; test: Plasma CK-MB ELISA; assay type: in vivo; conditions: mice, single dose DNR 15 mg/kg
CLL1-expressing cells = conditions: therapeutic concentration of approximately 4 µM ref 8; cited from earlier work
[7] = BALB/c, mouse, plasma, iv, 10 mg/kg
[8] = mice, 10 mg/kg DNR iv, mean ± SD
[9] = Sprague-Dawley, rat, plasma, iv, 5 mg/kg
[10] = rats, 5 mg/kg DNR iv, mean ± SD

COc1cccc2c1C(=O)c1c(O)c3c(c(O)c1C2=O)C[C@@](O)(C(C)=O)C[C@@H]3O[C@H]1C[C@H](N)[C@H](O)[C@H](C)O1 [Free DNR, daunorubicin]
AUC(0-t) [1, 7]: 836 ± 151 µg·h/mL | Cmax [1, 7]: 961000 ± 92000 ng/mL | MRT [1, 7]: 16.7 h | Vd [1, 7]: 0.205 ± 0.048 L/kg | clearance [1, 7]: 0.2 ± 0.03 mL/min/kg | concentration at 24 h [1, 7]: 13600 ± 1920 ng/mL | half-life ([1]; BALB/c, mouse, plasma, iv, 10 mg/kg, T 1/2β, mice, 10 mg/kg DNR iv): 11.9 ± 1 h | T 1/2α ([1]; mice, 10 mg/kg DNR iv, initial half-life in plasma): 1.11 ± 0.04 min | Kel [1, 8]: 3.68 ± 6.35 | α [1, 8]: 0.63 ± 0.02 min⁻¹ | β [1, 8]: 0.0001 min⁻¹ | caspase 3/7 activity in cardiac tissue relative to control mice treated with PBS [2]: about 3.46 times | overall survival (K562-CLL1 xenograft): 44 days | AUC(0-t) [3, 9]: 3.6 ± 0.79 µg·h/mL | Cmax [3, 9]: 1910 ± 260 ng/mL | MRT [3, 9]: 36.2 ± 6.51 h | Vd [3, 9]: 50.8 L/kg | clearance [3, 9]: 23.7 ± 5.2 mL/min/kg | half-life ([3]; Sprague-Dawley, rat, plasma, iv, 5 mg/kg, T 1/2β, rats, 5 mg/kg DNR iv): 25.4 ± 4.54 h | T 1/2α ([3]; rats, 5 mg/kg DNR iv): 56.4 ± 0 s | Kel [3, 10]: 0.01 ± 0.00 | α [3, 10]: 0.74 ± 0.00 min⁻¹ | β [3, 10]: 0.00 ± 0.00 min⁻¹ | histopathological changes in cardiac tissue ([4]; 25 mg/kg): marked myocardial toxicity | histopathological changes in spleen ([4]; low- or high-dose (5 and 25 mg/kg)): Marked red pulp hemorrhage-associated compensative sinusoidal histocytic proliferation and extramedullary hematopoiesis | cTnT level relative to control mice ([5]; 1 day after dosing): 9.15 times | cTnT level relative to control mice ([5]; 3 days (peak)): 15.8 times | plasma CK-MB level ([6]; 3 h after dosing): 60.02 ± 4.05 U/l | plasma CK-MB level ([6]; 5 days of follow-up): 113.98 ± 10.42 U/l

CLL1-targeting ligand: CLL1-targeting peptide (amino acid sequence: CDLRSAAVC), cyclized via disulfide (disulfide 1-9 (inferred))
increase of micelle-mediated drug delivery to CLL1-expressing cells (CLL1-expressing cells): approximately threefold
